The text below walks through data of patent US20170210757A1 (ALFA WASSERMANN S.P.A., priority 2003, published 2017).

A short description of data set [1]: Bioavailability in dogs by oral route (plasma rifaximin by LC-MS/MS). The data set is classed as in vivo, Beagle female dogs. How it is done:
Twelve 20 week pure-bred Beagle females dogs, and weighing between 5.0 and 7.5 kg, have been divided into three groups of four.
Each sample was transferred into an heparinized tube and was centrifuged; the plasma was divided into 50μl two aliquots and frozen at −20° C.
Tmax=time at which the Cmax is reached;
AUC=area under the concentration-time curve calculated through the linear trapezoidal rule.

Data set [2] can be described thus: Hygroscopicity and humidity-dependent transition between polymorphic forms. It is filed as physicochemical. Particulars: for hygroscopicity: reversibly absorb water under suitable conditions of pressure and humidity. The text has this:
Both the form γ and the forms α and β of rifaximin are hygroscopic, they reversibly absorb water in time in the presence of suitable environmental conditions of pressure and humidity and are susceptible of transformation from one form into another.

Data set [3] is described as follows: Intrinsic dissolution test (USP 27 monograph 1087). It is filed as physicochemical. The text has this: The die-holder containing the compacted pellet has then been mounted on a laboratory stirring device, immersed in a dissolution medium and rotated by means of the stirring device.
A compacted pellet was formed in the die with a single face of defined area exposed on the bottom of the die so that from 50% to 75% of the compacted pellet could dissolve in an appropriate dissolution medium.
The holder containing the die was mounted on a laboratory stirring device, immersed in a glass vessel containing a dissolution medium and rotated at a rotation speed of 100 rpm by means of the stirring device, while keeping the temperature of the dissolution medium at 37±0.5° C. […]

Setting [4] is: single oral administration of 100 mg/kg by capsules to female dogs, plasma, listed as Polimorph γ, 100 mg/kg.
Where [5] appears, read: single oral administration of 100 mg/kg by capsules to female dogs, plasma, listed as Polimorph β, 100 mg/kg.
The mark [6] stands for this setting: single oral administration of 100 mg/kg by capsules to female dogs, plasma, listed as Polimorph α, 100 mg/kg.

SMILES strings stand for the structures. Where two headings read alike, the source gives them in different places.

As for `CO[C@H]1/C=C/O[C@@]2(C)Oc3c(C)c(O)c4c(O)c(c5c(nc6cc(C)ccn65)c4c3C2=O)NC(=O)/C(C)=C\C=C\[C@H](C)[C@H](O)[C@@H](C)[C@@H](O)[C@@H](C)[C@H](OC(C)=O)[C@@H]1C` [rifaximin γ, rifaximin], in data set [1] (female, Beagle, dog, plasma, po, 100 mg/kg, oral 100 mg/kg, Beagle female dogs, read-out: Cmax), the Cmax is 668 ng/mL. Moreover, the “absorption in respect of rifaximin α and rifaximin β” value in data set [1] (oral 100 mg/kg, Beagle female dogs) is “more than 102 times”. In addition, the “AUC0-24 h (summary embodiment)” value in data set [1] (pharmaceutical composition comprising the polymorphic form, conditions not stated, listed as rifaximin in polymorphic form γ) was “about 4000 ng·h/ml”. In addition, in data set [1] (setting [4]), the “AUC0-24 Mean” value came to 3908 ng·h/mL and the “Cmax Mean” value was 668.22 ng/mL. Also, the hygroscopicity result in data set [2] was “hygroscopic”.

As to `CO[C@H]1/C=C/O[C@@]2(C)Oc3c(C)c(O)c4c(O)c(c5c(nc6cc(C)ccn65)c4c3C2=O)NC(=O)/C(C)=C\C=C\[C@H](C)[C@H](O)[C@@H](C)[C@@H](O)[C@@H](C)[C@H](OC(C)=O)[C@@H]1C` [rifaximin β, rifaximin], the “AUC0-24 h (summary embodiment)” value in data set [1] (pharmaceutical composition comprising the polymorphic form, conditions not stated, listed as rifaximin in polymorphic form β) is reported as “about 11 ng·h/ml”. Moreover, the “AUC0-24 Mean” value in data set [1] (setting [5]) came out at 11 ng·h/mL. In addition, the “tmax Mean” value in data set [1] (setting [5]) was found to be 4 h. In data set [3] (0.1M aqueous phosphate buffer pH 7.4 with 0.45% sodium lauryl sulfate, 37°C, listed as β polymorph), this compound displayed an Intrinsic dissolution rate of 0.0147 mg/min/cm^2. Also, the Rifaximin dissolved in data set [3] (15 min, 0.1M aqueous phosphate buffer pH 7.4 with 0.45% sodium lauryl sulfate, 37°C, listed as β polymorph) is reported as 0.28 mg/cm^2; in data set [3] (30 min, 0.1M aqueous phosphate buffer pH 7.4 with 0.45% sodium lauryl sulfate, 37°C, listed as β polymorph) it was 0.50 mg/cm^2; in data set [3] (45 min, 0.1M aqueous phosphate buffer pH 7.4 with 0.45% sodium lauryl sulfate, 37°C, listed as β polymorph), 0.71 mg/cm^2; in data set [3] (60 min, 0.1M aqueous phosphate buffer pH 7.4 with 0.45% sodium lauryl sulfate, 37°C, listed as β polymorph), 0.94 mg/cm^2. The “intrinsic dissolution rate (summary embodiment)” value in data set [3] (pharmaceutical composition comprising the polymorphic form, conditions not stated) is “about 0.01 mg/min/cm^2”. Further, in data set [2], the hygroscopicity entry is listed as “hygroscopic”.

Consider `CO[C@H]1/C=C/O[C@@]2(C)Oc3c(C)c(O)c4c(O)c(c5c(nc6cc(C)ccn65)c4c3C2=O)NC(=O)/C(C)=C\C=C\[C@H](C)[C@H](O)[C@@H](C)[C@@H](O)[C@@H](C)[C@H](OC(C)=O)[C@@H]1C` [rifaximin α, rifaximin], for which the highest concentration (Cmax) in data set [1] (Beagle, dog, plasma, oral, 100 mg/kg, pharmaceutical composition comprising the polymorphic form, conditions not stated, read-out: Cmax (summary embodiment)) is around 2 ng/mL. In addition, the time of peak concentration (Tmax) in data set [1] (female, Beagle, dog, plasma, po, 100 mg/kg, single oral administration of 100 mg/kg by capsules to female dogs) was 9.5 h. The “AUC0-24 h (summary embodiment)” value in data set [1] (pharmaceutical composition comprising the polymorphic form, conditions not stated, listed as rifaximin in polymorphic form α) is “about 13 ng·h/ml”. In addition, in data set [1] (setting [6]), the “AUC0-24 Mean” value amounted to 13 ng·h/mL and the “Cmax Mean” value came out at 2.632 ng/mL. For the same compound, the “disintegration of the compacted pellet (time)” value in data set [3] (phosphate buffer pH 7.4, 37°C, with sodium lauryl sulfate, also at 0.1% and 0.3% and without surfactant) is at most 10 min. Moreover, the “solid form transition under humidity” value in data set [2] (relative humidity higher than 50% for 12 to 48 hours) is “changes into the polymorphic form β”. Besides, in data set [2], the hygroscopicity entry is recorded as “hygroscopic”.
